Measured values from patent publication US20250221979A1, “NOVEL HETEROCYCLIC COMPOUND” (SHOUYAO HOLDINGS (BEIJING) CO., LTD., priority 2022, published 2025).

What was measured:
human MAT2A enzyme = human MAT2A enzyme (Homo sapiens (Human), UniProt P31153); assay: In vitro enzymatic inhibition activity assay on MAT2A (PiColorLock phosphate detection); assay type: biochemical; details: purified human MAT2A 10 nM, ATP 50 μM, L-methionine 100 μM, 6 h at 23° C.; read-out: MAT2A inhibitory activity IC50
Summary of the method: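 Purified human MAT2A (10 nM) turned L-methionine (100 μM) and ATP (50 μM) into SAM in Tris-HCl pH 7.5 buffer with MgCl2, KCl and DTT for 6 h at 23 °C. Released phosphate was read colorimetrically at 630 nm. IC50 was fitted from an 8-point, 10-fold dilution series.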

HCT116 MTAP−/− cells = assay: Inhibition of proliferation of HCT116 MTAP-/- cells (Cell-Titer Glo, 7 days); assay type: cell-based; details: Homo sapiens, HCT-116, 168 h (7 days) incubation, read-out: HCT116 MTAP−/− antiproliferative activity IC50
Procedure: The MTAP deficient human colorectal cancer cell line HCT116 MTAP−/− was constructed using CRJSPR Cas9 technology and cultured in DMEM medium supplemented with 10% fetal bovine serum (FBS, purchased from Gibco) and 1% penicillin/streptomycin (P/S, purchased from Thermo Fisher Scientific) at 37° C. with 5% CO2. HCT116 MTAP−/− cells were plated in 96 well plates (#3917, purchased from CORNING) at a concentration of 200 cells/195 μL/well. After 24 h, the compounds were diluted in a 3-fold gradient starting at 10 mM with 100% DMSO (for a total of 10 concentrations), then 4 μL of each concentration was added to 96 μL of serum-free DMEM medium for dilution. 5 μL of diluted compound at each concentration was added to the plated cell suspension and the compound was incubated with the cells for 168 h (7 days) in a cell culture incubator. The medium was then removed and 25 μL of Cell-Titer Glo® (G7570, purchased from Promega) reagent was added. Chemiluminescence values were read on a BMG and data were processed using GraphPad Prism software to calculate IC50 values for inhibition of cell proliferation by the compounds.

[1] = In vivo pharmacokinetic study in CD-1 mice; details: male, mouse, single oral gavage dose of 10 mg/kg, plasma
Procedure: In vivo pharmacokinetic study in CD-1 mice
Twenty-four healthy adult male mice from Beijing Vital River Laboratory Animal Technology Co., Ltd. were used in the study.
CD-1 mice were administered with a single oral gavage dose of 10 mg/kg in a volume of 10 mL/kg at a concentration of 1 mg/mL.
The test article in this project is generally suspended in 0.5% hydroxypropylmethyl cellulose, 0.1% Tween 80 (W/V/V) aqueous solution at the concentration of 1 mg/mL.
Animals dosed by gavage were fasted overnight before the experiment from 16 h before dosing to 4 h after dosing. Blood was collected at 0.25, 0.5, 1, 2, 4, 6, 8, and 24 h after administration successively. The animals were lightly anesthetized with isoflurane. About 0.2 mL of whole blood was collected from the orbital venous plexus using a glass blood collection tube and placed in a sodium heparin anticoagulant tube. The sample was centrifuged at 5200 rpm for 5 min at 4° C. The plasma was transferred to a centrifuge tube and stored at −80° C. until analysis.
Analysis of plasma samples Test compounds and internal standards (warfarin or propranolol) were extracted from mouse plasma using an acetonitrile protein precipitation method and the extracts were analyzed by LC/MS/MS. The measured plasma concentration-time data of individual animals were analyzed using the non-compartmental model of WinNonlin (version 5.2.1, Pharsight) software to obtain the corresponding pharmacokinetic parameters: maximum (peak) plasma drug concentration Cmax; Time to peak Tmax; Half-life T1/2 and area under the plasma concentration-time curve extrapolated to infinite time AUC0-inf.

Chain of human MAT2A enzyme (P31153 whole entry): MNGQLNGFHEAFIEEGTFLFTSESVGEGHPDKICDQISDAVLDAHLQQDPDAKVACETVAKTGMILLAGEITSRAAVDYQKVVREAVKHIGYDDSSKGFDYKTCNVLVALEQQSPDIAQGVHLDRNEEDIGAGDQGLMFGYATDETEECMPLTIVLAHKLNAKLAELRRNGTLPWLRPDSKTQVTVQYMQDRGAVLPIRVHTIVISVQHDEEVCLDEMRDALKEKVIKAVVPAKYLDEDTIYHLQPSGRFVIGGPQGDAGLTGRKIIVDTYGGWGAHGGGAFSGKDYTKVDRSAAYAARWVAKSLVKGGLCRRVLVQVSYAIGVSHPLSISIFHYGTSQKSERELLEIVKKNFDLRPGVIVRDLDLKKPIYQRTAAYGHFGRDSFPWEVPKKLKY

IC50 (human MAT2A enzyme) [nM] | IC50 (HCT116 MTAP−/− cells) [nM] | AUC [1] [µg·h/mL] | Cmax [1] [ng/mL] | Tmax [1] [h] | half-life [1] [h] | SMILES
0.14 | 14.2 | – | – | – | – | COC(=O)c1c(N)c2ccc(I)cc2n(-c2ccc(N)cc2)c1=O [Example 252, methyl 4-amino-1-(4-aminophenyl)-7-iodo-2-oxo-1,2-dihydro quinoline-3-carboxylate]
1.72 | 61.2 | – | – | – | – | COC(=O)c1c(N)c2ccc(Br)nc2n(-c2cccc3c(Cl)nccc23)c1=O [Example 240, methyl 4-amino-1-(1-chloroisoquinolin-5-yl)-7-bromo-2-oxo-1,2-dihydro-1,8-naphthyridine-3-carboxylate]
1.2 | 1.5 | – | – | – | – | COC(=O)c1c(N)c2ccc(OC(F)(F)F)cc2n(-c2ccc([C@@H](C)O)cc2)c1=O [Example 378, methyl 4-amino-1-(4-((1R)-1-hydroxyethyl)phenyl)-2-oxo-7-(trifluoromethoxy)-1,2-dihydroquinoline-3-carboxylate]
1.18 | 30.9 | – | – | – | – | COC(=O)c1c(N)c2ccc(C(F)(F)F)nc2n(-c2ccc(Cl)cc2)c1=O [Example 173, methyl 4-amino-1-(4-chlorophenyl)-2-oxo-7-(trifluoromethyl)-1,2-dihydro-1,8-naphthyridine-3-carboxylate]
4.09 | 70.9 | – | – | – | – | COC(=O)c1c(N)c2ccc(C(F)(F)F)nc2n(-c2ccc(OC)nc2)c1=O [Example 208, methyl 4-amino-1-(6-methoxypyridin-3-yl)-2-oxo-7-(trifluoromethyl)-1,2-dihydro-1,8-naphthyridine-3-carboxylate]
0.94 | 47.3 | – | – | – | – | COC(=O)c1c(N)c2ccc(Br)nc2n(-c2ccc(Cl)cc2)c1=O [Example 265, methyl 4-amino-7-bromo-1-(4-chlorophenyl)-2-oxo-1,2-dihydro-1,8-naphthyridine-3-carboxylate]
0.86 | 46.4 | – | – | – | – | COC(=O)c1c(N)c2ccc(Br)nc2n(-c2ccc3ccncc3c2)c1=O [Example 244, methyl 4-amino-7-bromo-1-(isoquinolin-7-yl)-2-oxo-1,2-dihydro-1,8-naphthyridine-3-carboxylate]
0.54 | – | 25.3 | 1920 | 6 | 6.82 | COC(=O)c1c(N)c2ccc(Br)cc2n(-c2ccccc2)c1=O [Example 22, methyl 4-amino-7-bromo-2-oxo-1-phenyl-1,2-dihydroquinoline-3—carboxylate]
2.89 | – | 232 | 28600 | 1 | 2.53 | COC(=O)c1c(N)c2ccc(Br)cc2n(-c2ccc(C)nc2)c1=O [Example 214, methyl 4-amino-7-bromo-1-(6-methylpyridin-3-yl)-2-oxo-1,2-dihydroquinoline-3-carboxylate]
3 | 35.1 | – | – | – | – | COC(=O)c1c(N)c2ccc(Br)cc2n(-c2cccc3cnccc23)c1=O [Example 154, methyl 4-amino-7-bromo-1-(isoquinolin-5-yl)-2-oxo-1,2-dihydroquinoline-3-carboxylate]
0.78 | 16.6 | – | – | – | – | COC(=O)c1c(N)c2ccc(C(F)(F)F)cc2n(-c2ccc([C@@H](C)O)cc2)c1=O [Example 272, methyl 4-amino-1-(4-(1-(R)-hydroxyethyl)phenyl)-2-oxo-7-(trifluoromethyl)-1,2-dihydroquinoline-3-carboxylate]
2.71 | 41.4 | – | – | – | – | COC(=O)c1c(N)c2ccc(Br)nc2n(-c2cccc3cnccc23)c1=O [Example 221, methyl 4-amino-7-bromo-1-(isoquinolin-5-yl)-2-oxo-1,2-dihydro-1,8-naphthyridine-3-carboxylate]
1.63 | 23.4 | – | – | – | – | COC(=O)c1c(N)c2ccc(Br)cc2n(-c2ccc(C(C)O)cc2)c1=O (stereo not shown) [Example 200, methyl 4-amino-7-bromo-1-(4-(1-hydroxyethyl)phenyl)-2-oxo-1,2-dihydro quinoline-3-carboxylate]
0.83 | 87.2 | – | – | – | – | COC(=O)c1c(N)c2ccc(Br)cc2n(-c2ccc3c(c2)OCO3)c1=O [Example 92, methyl 4-amino-1-(benzo[d](1,3)dioxol-5-yl)-7-bromo-2-oxo-1,2-dihydroquinoline-3-carboxylate]
7.3 | – | 24.8 | 6690 | 0.42 | 3.88 | COC(=O)c1c(N)c2ccc(C(F)(F)F)cc2n(-c2cccc3cnccc23)c1=O [Example 88, methyl 4-amino-1-(isoquinolin-5-yl)-2-oxo-7-(trifluoromethyl)-1,2-dihydroquinoline-3-carboxylate]
6.25 | 53.5 | – | – | – | – | COC(=O)c1c(N)c2ccc(C(F)(F)F)cc2n(-c2ccc(C(C)O)nc2)c1=O (stereo not shown) [Example 175, methyl 4-amino-1-(6-(1-hydroxyethyl)pyridin-3-yl)-2-oxo-7-(trifluoromethyl)-1,2-dihydroquinoline-3-carboxylate]
2.37 | 85.2 | – | – | – | – | COC(=O)c1c(N)c2ccc(C(F)(F)F)cc2n(-c2ccc(CO)cc2)c1=O [Example 86, methyl 4-amino-2-oxo-1-(4-(hydroxymethyl)phenyl)-7-(trifluoromethyl)-1,2-dihydroquinoline-3-carboxylate]
2.74 | 39.2 | – | – | – | – | COC(=O)c1c(N)c2ccc(Br)cc2n(-c2ccc(Cl)c3cnccc23)c1=O [Example 176, methyl amino-1-(8-chloroisoquinolin-5-yl)-7-bromo-2-oxo-1,2-dihydroquinoline-3-carboxylate]
2.29 | – | 452 | 52800 | 1 | 6.81 | COC(=O)c1c(N)c2ccc(C(F)(F)F)nc2n(-c2ccc(N)cc2Cl)c1=O [Example 325, methyl 4-amino-1-(4-amino-2-chlorophenyl)-2-oxo-7-trifluoromethyl-1,2-dihydro-1,8-naphthyridine-3-carboxylate]
0.91 | – | 37 | 2640 | 6 | 6.51 | COC(=O)c1c(N)c2ccc(C(F)(F)F)cc2n(-c2ccccc2C)c1=O [Example 23, methyl 4-amino-7-trifluoromethyl-1-(2-methylphenyl)-2-oxo-1,2-dihydro quinoline-3-carboxylate]
1.24 | – | 591 | 37500 | 4 | 9.25 | COC(=O)c1c(N)c2ccc(Br)cc2n(-c2ccc(N)cc2C)c1=O [Example 238, methyl 4-amino-1-(4-amino-2-methylphenyl)-7-bromo-2-oxo-1,2-dihydroquinoline-3-carboxylate]
0.76 | – | 32.8 | 5060 | 2.08 | 4.09 | COC(=O)c1c(N)c2ccc(Br)cc2n(-c2ccc(N)nc2)c1=O [Example 180, methyl 4-amino-1-(6-aminopyridin-3-yl)-7-bromo-2-oxo-1,2-dihydroquinoline-3-carboxylate]
1.41 | – | 468 | 18600 | 4 | 16.5 | COC(=O)c1c(N)c2ccc(OC(F)(F)F)cc2n(-c2ccc(N)cc2)c1=O [Example 379, methyl 4-amino-1-(4-aminophenyl)-2-oxo-7-(trifluoromethoxy)-1,2-dihydroquinoline-3-carboxylate]
